Assay results from paper PMC9308409 (Communications Biology, 2022).
Several values for one entry are separate records, joined by “and”; a condition that tells them apart may be missing. Identical values can stand only once. Like-named read-outs stand apart in the source and are kept apart here.

Key:
TPCs = settings: read-out: IC50 inhibition of TPCs; cited from earlier work
lysosomal TPC2 = settings: cited from earlier work
[1] = target: T1, human TPC2^PM Y312A mutant (Homo sapiens, UniProt Q8NHX9, L11A/L12A/Y312A); assay: Inside-out patch-clamp, PI(3,5)P2-activated TPC2^PM Y312A; type: cell-based; settings: for current, trace of PI103 on Y312A of TPC2 channel: successive trace points
T1 construct: FLAG (C); V5 (C); expressed in transfected cells; host or cells: HEK293
T1 sequence (Q8NHX9 whole entry L11A/L12A/Y312A): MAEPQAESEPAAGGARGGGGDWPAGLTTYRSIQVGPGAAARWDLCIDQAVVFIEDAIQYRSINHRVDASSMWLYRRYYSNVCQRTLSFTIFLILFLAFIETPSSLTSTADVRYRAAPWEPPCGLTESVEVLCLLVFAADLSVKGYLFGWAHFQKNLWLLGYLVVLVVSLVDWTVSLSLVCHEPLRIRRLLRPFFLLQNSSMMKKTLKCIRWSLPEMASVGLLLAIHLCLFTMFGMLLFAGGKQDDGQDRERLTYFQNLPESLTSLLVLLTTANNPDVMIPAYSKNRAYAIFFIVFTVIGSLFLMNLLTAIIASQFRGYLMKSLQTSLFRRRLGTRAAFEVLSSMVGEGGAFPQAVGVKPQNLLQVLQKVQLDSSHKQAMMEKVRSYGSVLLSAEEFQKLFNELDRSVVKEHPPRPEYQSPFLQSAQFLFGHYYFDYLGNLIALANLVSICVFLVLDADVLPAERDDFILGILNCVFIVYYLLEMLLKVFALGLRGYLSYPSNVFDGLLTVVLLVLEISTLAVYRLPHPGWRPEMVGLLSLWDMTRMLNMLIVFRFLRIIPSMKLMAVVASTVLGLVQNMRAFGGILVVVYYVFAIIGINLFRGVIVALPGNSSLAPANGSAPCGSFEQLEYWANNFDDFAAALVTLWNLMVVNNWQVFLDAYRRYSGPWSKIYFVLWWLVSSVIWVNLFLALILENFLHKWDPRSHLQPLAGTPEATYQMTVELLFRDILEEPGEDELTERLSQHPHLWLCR
Method: (§1) After 24 h of transfection, human TPC1^PM or TPC2^PM channel currents were acquired at room temperature using an EPC-10 amplifier and PatchMaster software (HEKA) or a MultiClamp 700B amplifier and pCLAMP software (Axon Instruments). […] Patch pipettes were polished with a resistance of 2–3 MΩ for recording. Similarly, for whole-cell recording to allow inhibitor application on the extracellular side, the K^+-based solution was used as the pipette solution, and the Na^+-based solution was used in the bath.

[2] = target: T2, human TPC2^PM H699A mutant (Homo sapiens, UniProt Q8NHX9, H699A/L11A/L12A); assay: Inside-out patch-clamp, PI(3,5)P2-activated TPC2^PM H699A; type: cell-based; settings: for current, trace of PI103 on H699A of TPC2 channel: voltage -1.20E+02, successive trace points
T2 construct: FLAG (C); V5 (C); expressed in transfected cells; host or cells: HEK293
T2 sequence (Q8NHX9 whole entry L11A/L12A/H699A): as the sequence (Q8NHX9 whole entry L11A/L12A/Y312A) above, with A312Y, H699A counted along it
Method: as §1

[3] = target: T3, human TPC2 L11A/L12A (TPC2^PM) (Homo sapiens, UniProt Q8NHX9, L11A/L12A); assay: Inside-out patch-clamp of PI(3,5)P2-induced TPC2^PM Na+ currents (WT pore); type: cell-based; settings: for current, trace of PI103 on WT TPC2 channel: voltage -1.20E+02, successive trace points
T3 construct: FLAG (C); V5 (C); expressed in transfected cells; host or cells: HEK293
T3 sequence (Q8NHX9 whole entry L11A/L12A): as the sequence (Q8NHX9 whole entry L11A/L12A/Y312A) above, with A312Y counted along it
Method: as §1
Dose curves were fitted by the Hill logistic equation. τon and τoff were acquired from singe exponential fitting.

[4] = target: T4, human TPC2^PM Y312A/H699A mutant (Homo sapiens, UniProt Q8NHX9, H699A/L11A/L12A/Y312A); assay: Inside-out patch-clamp, PI(3,5)P2-activated TPC2^PM Y312A/H699A; type: cell-based; settings: 0.3 μM PI(3,5)P2 alone, trace, voltage -1.20E+02
T4 construct: FLAG (C); V5 (C); expressed in transfected cells; host or cells: HEK293
T4 sequence (Q8NHX9 whole entry L11A/L12A/Y312A/H699A): as the sequence (Q8NHX9 whole entry L11A/L12A/Y312A) above, with H699A counted along it
Method: as §1

[5] = target: T3, human TPC2 L11A/L12A (TPC2^PM); assay: Whole cell patch-clamp of NAADP (microinjection)-induced TPC2^PM currents in HEK293 cells; type: cell-based; parameters: averaged NAADP-induced whole cell current trace: unit not given here
Method: Whole cell patch-clamp recording of the NAADP (microinjection)-induced TPC2^PM currents was performed as we reported. […] The cells were visualized under an infrared differential interference contrast optics microscope (Zeiss). Currents were recorded by voltage ramps from −120 to +120 mV over 400 ms for every 2 s with a holding potential of 0 mV. After a whole cell recording configuration was achieved, an injection pipette was inserted into the cell and the baseline of the whole cell current was recorded. Microinjection of NAADP was performed as above in imaging analysis of NAADP-evoked Ca^2+ release. The NAADP-induced currents were obtained by subtraction of the baseline from NAADP injection-induced currents.

human TPC2 = target: T5, human TPC2 (Homo sapiens, UniProt Q8NHX9); assay: Imaging of NAADP-evoked Ca2+ elevation (GCaMP6f) after microinjection in TPC2-expressing HEK293 cells; type: cell-based
T5 construct: FLAG (C); V5 (C); expressed in transfected cells; host or cells: HEK293
T5 sequence (Q8NHX9 whole entry): as the sequence (Q8NHX9 whole entry L11A/L12A/Y312A) above, with A11L, A12L, A312Y counted along it
Method: Ca^2+ imaging analysis of NAADP-evoked Ca^2+ elevation was performed as we recently described. Briefly, cells were co-transfected with cDNA constructs of human TPC2 and the Ca^2+ reporter GCaMP6f, and the transfected cells were identified by GCaMP6f fluorescence. Fluorescence was monitored with an Axio Observer A1 microscope equipped with an AxioCam MRm digital camera and ZEN Blue 2 software containing a physiology module (Carl Zeiss) at a sampling frequency of 2 Hz. Cell injection was performed with a FemtoJet microinjector (Eppendorf). The pipette solution contained 110 mM KCl, 10 mM NaCl, and 20 mM Hepes (pH 7.2) supplemented with Dextran (10,000 MW)-Texas Red (0.3 mg/ml) and NAADP (100 nM) or vehicle. When needed, 10 µM YM201626 or apilimod at was added to the pipette solution. […] To minimize interference by contaminated Ca^2+, the pipette solution was always treated with Chelex 100 resin (#C709, Sigma-Aldrich) immediately before use. Microinjection (0.5 s at 150 hPa) was made ~30 s after pipette tip insertion into cells. […] Successful injection was verified by fluorescence of the co-injected Texas Red. Elevation in intracellular Ca^2+ concentration was reported by a change in fluorescence intensity measured as ΔF/F0, calculated from NAADP microinjection-induced maximal changes in fluorescence (ΔF at the peak) divided by the fluorescence immediately before microinjection (F0).

Ebola virus = settings: read-out: IC50 virus entry; cited from earlier work

O=C1C[C@@H](c2ccc(O)cc2)Oc2cc(O)cc(O)c21 [Naringenin]
IC50 (TPCs): ~200 µM

COc1ccc([C@H]2N[C@H](C(=O)O)Cc3c2[nH]c2ccccc32)cc1CN1CCN(c2ccccc2F)CC1 [Ned-19]
inhibition of lysosomal TPC2 activity (lysosomal TPC2; 200 µM): ~ 75%

Oc1cccc(-c2nc(N3CCOCC3)c3oc4ncccc4c3n2)c1 [PI103]
current, trace of PI103 on Y312A of TPC2 channel ([1]; 0.3 μM PI(3,5)P2 + 2.0 μM PI103, voltage -1.20E+02): -3.13E-09 A
current, trace of PI103 on Y312A of TPC2 channel ([1]; 0.3 μM PI(3,5)P2 + 5.0 μM PI103, voltage -1.20E+02): -1.87E-09 A
current, trace of PI103 on Y312A of TPC2 channel ([1]; 0.3 μM PI(3,5)P2 + 20.0 μM PI103, voltage -1.20E+02): -1.61E-09 A
current, trace of PI103 on H699A of TPC2 channel ([2]; 0.3 μM PI(3,5)P2 + 0.4 μM PI103): -4.01E-09 A
current, trace of PI103 on H699A of TPC2 channel ([2]; 0.3 μM PI(3,5)P2 + 20.0 μM PI103): -3.66E-09 A
current, trace of PI103 on H699A of TPC2 channel ([2]; 0.3 μM PI(3,5)P2 + 50.0 μM PI103): -3.37E-09 A
current, trace of PI103 on WT TPC2 channel ([3]; 0.3 μM PI(3,5)P2 + 0.2 μM PI103): -1.97E-09 A
current, trace of PI103 on WT TPC2 channel ([3]; 0.3 μM PI(3,5)P2 + 0.5 μM PI103): -1.21E-09 A

CCCCCCCC(=O)OC[C@H](COP(=O)(O)OC1[C@H](O)[C@H](OP(=O)(O)O)C(O)[C@H](OP(=O)(O)O)[C@H]1O)OC(=O)CCCCCCC (some centres unmarked) [PI(3,5)P2, phosphatidylinositol 3,5-bisphosphate]
current(A) ([1]; Y312A TPC2, 0.3 μM PI(3,5)P2 alone, trace, voltage -1.20E+02): -2.83E-09 A
current(A) [4]: -4.54E-09 A
deactivation rate τoff on wash-off ([3]; 1.0 μM PI(3,5)P2, n = 7): 20.8 ± 0.9 s
activation rate τon of human TPC2 channels ([3]; 1.0 μM PI(3,5)P2 from cytosolic side, n = 8): 9.0 ± 0.5 s
kinetics (Tau) of TPC2PM currents, mean value ([3]; PI(3,5)P2 wash on): 9.035
Tau of TPC2PM currents, PI(3,5)P2 wash on after Y201636, single cells ([3]; individual cells 1-5, Fig 3D): 48.718 and 63.746 and 69.896 and 56.91 and 53.316
Tau of TPC2PM currents, PI(3,5)P2 wash off, single cells ([3]; individual cells 1-7, Fig 3D): 21.372 and 18.6234 and 21.6704 and 18.1982 and 20.854 and 19.4692 and 25.31
Tau of TPC2PM currents, PI(3,5)P2 wash on, single cells ([3]; individual cells 1-8, Fig 3D): 8.4824 and 9.9858 and 7.6828 and 7.7804 and 8.8206 and 10.9364 and 11.3272 and 7.265
Averaged kinetics (Tau) of TPC2PM currents, PI(3,5)P2 wash on after YM201636, mean value ([3]; mean, 5 cells, Fig 3D): 11.9903
Averaged kinetics (Tau) of TPC2PM currents, PI(3,5)P2 wash off, mean value ([3]; mean, 7 cells, Fig 3D): 20.7853
Averaged kinetics (Tau) of TPC2PM currents, PI(3,5)P2 wash on, mean value ([3]; mean, 8 cells, Fig 3D): 9.035

Oc1cccc(-c2nc(N3CCOCC3)c3oc4ncccc4c3n2)c1 [PI-103]
IC50 [1]: 13.9 µM
channel's blockade in H699A mutant ([2]; 0.3 μM PI(3,5)P2, inside-out): largely abolished
fold higher IC50 than that of YM201636 ([3]; WT TPC2^PM): 4 fold
IC50 ([3]; read-out: IC50 for inhibition of PI(3,5)P2-induced human TPC2 channel Na+ currents): 0.64 µM

COc1cc2c(cc1Oc1ccccc1)C(Cc1ccc(Oc3ccccc3)cc1)N(C)CC2 (centres unmarked) [SG-094]
inhibition of (lysosomal) TPC2 currents (lysosomal TPC2; 10 µM): ~ 75%

Cc1cccc(/C=N/Nc2cc(N3CCOCC3)nc(OCCc3ccccn3)n2)c1 [apilimod]
inhibition of the NAADP-induced TPC2^PM currents ([5]; 1 µM in bath solution ~10 min, whole cell, −120 mV): little effect
averaged NAADP-induced whole cell current trace ([5]; 1 uM, Voltage -119.76): -0.4148
averaged NAADP-induced whole cell current trace ([5]; 1 uM, Voltage -119.82): -0.4172
averaged NAADP-induced whole cell current trace ([5]; 1 uM, Voltage -119.88): -0.4198
averaged NAADP-induced whole cell current trace ([5]; 1 uM, Voltage -119.94): -0.4267
averaged NAADP-induced whole cell current trace ([5]; 1 uM, Voltage -120, Fig 1C source data): -0.4289
I, current density of NAADP-induced whole cell TPC2^PM currents, individual cells ([5]; 1 uM, −120 mV, Fig 1D source data): 94.6904 pA/pF and 47.5492 pA/pF and 12.9726 pA/pF and 46.7536 pA/pF and 31.7662 pA/pF and 23.2025 pA/pF
reduction of the NAADP-evoked Ca2+ elevation (human TPC2; 1 µM microinjected together with NAADP (100 nM), HEK293 cells): largely unaffected
NAADP-evoked calcium elevation (change in Ca2+ indicator fluorescence), individual cells (human TPC2; Fig 1B source data, 1 µM microinjected with NAADP): 2.593 and 3.9665 and 6.13 and 1.0864 and 2.248 and 3.0742

COc1ccc2cc1Oc1ccc(cc1)C[C@H]1c3cc(c(OC)cc3CCN1C)Oc1c(OC)c(OC)cc3c1[C@H](C2)N(C)CC3 [tetrandrine]
inhibition of (lysosomal) TPC2 currents (lysosomal TPC2; 0.5 µM): 60%
inhibition of (lysosomal) TPC2 currents (lysosomal TPC2; 10 µM): 54% and 50–60%
IC50 (Ebola virus): 0.055 µM
